Measured values published in PubChem BioAssay (NCI).
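Method: 48-hour compound exposure of cells in 96-well plates, five concentrations, linear interpolation of endpoints. The concentration for full growth arrest is given as TGI.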

Key:
Assay in all cases: NCI anticancer screen, dose series, 48 h
HCT-116 colon = system: HCT-116 colon
A498 renal = system: A498 renal
HCT-15 colon = system: HCT-15 colon
CCRF-CEM leukemia = system: CCRF-CEM leukemia
NCI-H226 lung = system: NCI-H226 lung
NCI-H522 lung = system: NCI-H522 lung
SK-OV-3 ovarian = system: SK-OV-3 ovarian
IGROV1 ovarian = system: IGROV1 ovarian
HL-60(TB) leukemia = system: HL-60(TB) leukemia
SK-MEL-5 melanoma = system: SK-MEL-5 melanoma
HT29 colon = system: HT29 colon
A549 NSCLC = system: A549 NSCLC
MDA-N = system: MDA-N
OVCAR-8 ovarian = system: OVCAR-8 ovarian
HOP-62 NSCLC = system: HOP-62 NSCLC
HS 578T breast = system: HS 578T breast
DU-145 prostate = system: DU-145 prostate
RPMI-8226 leukemia = system: RPMI-8226 leukemia
SNB-19 CNS = system: SNB-19 CNS
MOLT-4 leukemia = system: MOLT-4 leukemia
NCI/ADR-RES ovarian = system: NCI/ADR-RES ovarian
SK-MEL-28 melanoma = system: SK-MEL-28 melanoma
K-562 leukemia = system: K-562 leukemia
UACC-257 melanoma = system: UACC-257 melanoma
SR leukemia = system: SR leukemia
M14 melanoma = system: M14 melanoma
UO-31 renal = system: UO-31 renal
MDA-MB-435 = system: MDA-MB-435
MDA-MB-231 breast = system: MDA-MB-231 breast
SW-620 colon = system: SW-620 colon
KM12 colon = system: KM12 colon
NCI-H23 lung = system: NCI-H23 lung
OVCAR-3 ovarian = system: OVCAR-3 ovarian
786-0 renal = system: 786-0 renal
SF-295 CNS = system: SF-295 CNS
SNB-75 CNS = system: SNB-75 CNS
MCF7 breast = system: MCF7 breast
U251 CNS = system: U251 CNS
NCI-H460 lung = system: NCI-H460 lung
PC-3 prostate = system: PC-3 prostate
SN12C renal = system: SN12C renal
COLO 205 colon = system: COLO 205 colon
SK-MEL-2 melanoma = system: SK-MEL-2 melanoma
ACHN renal = system: ACHN renal
HOP-92 NSCLC = system: HOP-92 NSCLC
SF-268 CNS = system: SF-268 CNS
T-47D breast = system: T-47D breast
TK-10 renal = system: TK-10 renal
SF-539 CNS = system: SF-539 CNS
UACC-62 melanoma = system: UACC-62 melanoma
OVCAR-4 ovarian = system: OVCAR-4 ovarian
LOX IMVI melanoma = system: LOX IMVI melanoma
EKVX NSCLC = system: EKVX NSCLC
CAKI-1 renal = system: CAKI-1 renal
OVCAR-5 ovarian = system: OVCAR-5 ovarian
HCC-2998 colon = system: HCC-2998 colon
RXF 393 renal = system: RXF 393 renal
MALME-3M melanoma = system: MALME-3M melanoma
BT-549 breast = system: BT-549 breast

With `C=C(CCOC)CCC1CCCCC(=C)[C@H]1OC(C)=O` (stereo not given in full) the TGI (HCT-116 colon) was > 100 µM, the TGI (A498 renal) was > 100 µM and the TGI (HCT-15 colon) was > 100 µM. The TGI (CCRF-CEM leukemia) was > 100 µM, the TGI (NCI-H226 lung) was > 100 µM and the TGI (NCI-H522 lung) was > 100 µM. The TGI (SK-OV-3 ovarian) was > 100 µM, the TGI (IGROV1 ovarian) was > 100 µM and the TGI (HL-60(TB) leukemia) was > 100 µM. For the same compound, the TGI (SK-MEL-5 melanoma) was > 100 µM, the TGI (HT29 colon) was > 100 µM and the TGI (A549 NSCLC) was > 100 µM. For the same compound, the TGI (MDA-N) was > 100 µM, the TGI (OVCAR-8 ovarian) was > 100 µM and the TGI (HOP-62 NSCLC) was > 100 µM. The TGI (HS 578T breast) was > 100 µM, the TGI (DU-145 prostate) was > 100 µM and the TGI (RPMI-8226 leukemia) was > 100 µM. For the same compound, the TGI (SNB-19 CNS) was > 100 µM, the TGI (MOLT-4 leukemia) was > 100 µM and the TGI (NCI/ADR-RES ovarian) was > 100 µM. For the same compound, the TGI (SK-MEL-28 melanoma) was > 100 µM, the TGI (K-562 leukemia) was > 100 µM and the TGI (UACC-257 melanoma) was > 100 µM. For the same compound, the TGI (SR leukemia) was > 100 µM, the TGI (M14 melanoma) was > 100 µM and the TGI (UO-31 renal) was > 100 µM. The TGI (MDA-MB-435) was > 100 µM, the TGI (MDA-MB-231 breast) was > 100 µM and the TGI (SW-620 colon) was > 100 µM. For the same compound, the TGI (KM12 colon) was > 100 µM, the TGI (NCI-H23 lung) was > 100 µM and the TGI (OVCAR-3 ovarian) was > 100 µM. The TGI (786-0 renal) was > 100 µM, the TGI (SF-295 CNS) was > 100 µM and the TGI (SNB-75 CNS) was > 100 µM. For the same compound, the TGI (MCF7 breast) was > 100 µM, the TGI (U251 CNS) was > 100 µM and the TGI (NCI-H460 lung) was > 100 µM. The TGI (PC-3 prostate) was > 100 µM, the TGI (SN12C renal) was > 100 µM and the TGI (COLO 205 colon) was > 100 µM. The TGI (SK-MEL-2 melanoma) was > 100 µM, the TGI (ACHN renal) was > 100 µM and the TGI (HOP-92 NSCLC) was > 100 µM. For the same compound, the TGI (SF-268 CNS) was > 100 µM, the TGI (T-47D breast) was > 100 µM and the TGI (TK-10 renal) was > 100 µM. For the same compound, the TGI (SF-539 CNS) was > 100 µM, the TGI (UACC-62 melanoma) was > 100 µM and the TGI (OVCAR-4 ovarian) was > 100 µM. For the same compound, the TGI (LOX IMVI melanoma) was > 100 µM, the TGI (EKVX NSCLC) was > 100 µM and the TGI (CAKI-1 renal) was > 100 µM. For the same compound, the TGI (OVCAR-5 ovarian) was > 100 µM.

`N#CC(C#N)=C1c2ccccc2C(=NN)c2ccccc21` was tested, and the TGI (A498 renal) was > 100 µM, the TGI (HCT-15 colon) was > 100 µM and the TGI (CCRF-CEM leukemia) was > 100 µM. The TGI (NCI-H226 lung) was > 100 µM, the TGI (NCI-H522 lung) was > 100 µM and the TGI (SK-OV-3 ovarian) was > 100 µM. For the same compound, the TGI (IGROV1 ovarian) was > 100 µM, the TGI (SK-MEL-5 melanoma) was > 100 µM and the TGI (HT29 colon) was > 100 µM. For the same compound, the TGI (HCC-2998 colon) was > 100 µM, the TGI (MDA-N) was > 100 µM and the TGI (RXF 393 renal) was > 100 µM. For the same compound, the TGI (OVCAR-8 ovarian) was > 100 µM, the TGI (HOP-62 NSCLC) was > 100 µM and the TGI (HS 578T breast) was > 91.5 µM. For the same compound, the TGI (DU-145 prostate) was > 100 µM, the TGI (MALME-3M melanoma) was > 100 µM and the TGI (RPMI-8226 leukemia) was > 100 µM. For the same compound, the TGI (SNB-19 CNS) was > 100 µM, the TGI (MOLT-4 leukemia) was > 100 µM and the TGI (NCI/ADR-RES ovarian) was > 100 µM. For the same compound, the TGI (SK-MEL-28 melanoma) was > 100 µM, the TGI (K-562 leukemia) was > 100 µM and the TGI (UACC-257 melanoma) was > 100 µM. For the same compound, the TGI (SR leukemia) was > 100 µM, the TGI (M14 melanoma) was > 100 µM and the TGI (UO-31 renal) was > 100 µM. For the same compound, the TGI (MDA-MB-435) was > 100 µM, the TGI (MDA-MB-231 breast) was > 100 µM and the TGI (SW-620 colon) was > 100 µM. For the same compound, the TGI (KM12 colon) was > 100 µM, the TGI (OVCAR-3 ovarian) was > 100 µM and the TGI (786-0 renal) was > 100 µM. The TGI (SF-295 CNS) was > 100 µM, the TGI (SNB-75 CNS) was > 100 µM and the TGI (MCF7 breast) was > 100 µM. The TGI (U251 CNS) was > 100 µM, the TGI (PC-3 prostate) was > 100 µM and the TGI (SN12C renal) was > 100 µM. For the same compound, the TGI (COLO 205 colon) was > 100 µM, the TGI (SK-MEL-2 melanoma) was > 100 µM and the TGI (ACHN renal) was > 63.9 µM. For the same compound, the TGI (HOP-92 NSCLC) was > 100 µM, the TGI (SF-268 CNS) was > 100 µM and the TGI (TK-10 renal) was > 100 µM. For the same compound, the TGI (SF-539 CNS) was > 100 µM, the TGI (UACC-62 melanoma) was > 100 µM and the TGI (BT-549 breast) was > 100 µM. The TGI (CAKI-1 renal) was > 100 µM and the TGI (OVCAR-5 ovarian) was > 100 µM.
